Laboratory results published in patent publication US20110263046A1, “Methods of identification of novel ligands for modulation of orphan nuclear receptor RAR-related orphan receptor-gamma (NR1F3) activity” (PHENEX PHARMACEUTICALS AG, priority 2008, published 2011).
Entries after “also recorded” stand apart in the source; their conditions may differ.

Assays:
[1] = target: T1, RORgamma ligand binding domain (Homo sapiens, UniProt P51449); experiment: TR-FRET ligand sensing assay: RORγ-LBD / coactivator peptide interaction; assay type: biochemical; parameters: made in house; host or cells: E. coli BL21(DE3); settings: for IC50: antagonistic
T1 sequence (P51449 267-518): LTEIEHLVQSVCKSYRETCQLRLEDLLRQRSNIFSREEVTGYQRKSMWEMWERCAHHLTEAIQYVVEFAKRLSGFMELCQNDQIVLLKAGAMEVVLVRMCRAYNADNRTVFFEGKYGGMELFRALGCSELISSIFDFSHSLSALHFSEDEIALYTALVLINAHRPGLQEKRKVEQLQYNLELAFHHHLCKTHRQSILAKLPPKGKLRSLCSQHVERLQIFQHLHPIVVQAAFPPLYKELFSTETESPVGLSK
Procedure: As described in more detail in the examples, a GST-RORgamma-LBD fusion protein is expressed and purified from E. coli. The TR-FRET assays were performed in a final volume of 25 μl in individual wells of a 384 well plate using a Tris-based buffer system: 10-50 mM Tris-HCl pH 7.9; 50-100 mM KCl, 1-10 mM MgCl2; 20-100 ng/μl BSA), containing 20-60 ng/well recombinantly expressed RORγ-LBD fused to GST, 200-600 nM N-terminally biotinylated peptide (e.g. derived from SRC-1 or TIF-2), 50-500 ng/well Streptavidin-xIAPC conjugate (Prozyme) and 2-20 ng/well Eu W1024-antiGST (Perkin Elmer).
The human RORg ligand binding domain (LBD) was expressed in E. coli strain BL21(DE3) as an N-terminal glutathione-S-transferase (GST) tagged fusion protein. The DNA encoding the RORg ligand binding domain was cloned into vector pDEST15 (Invitrogen). […] Expression in pDEST15 is controlled by a IPTG inducible T7 promoter and cloning and transformation of E. coli was done essentially according to standard protocols known to persons skilled in the art and supplied by Invitrogen.
Determination of the interaction of a ligand with the human RORgamma ligand binding domain was done by using a Ligand Sensing Assay based on Time-resolved Fluorescence Energy Transfer (TR-FRET).
This method measures the ability of putative ligands to modulate the interaction between the purified bacterial expressed RORg ligand binding domain (LBD) and synthetic N-terminally biotinylated peptides which are derived from nuclear receptor coactivator proteins such as but not limited to SRC1 (NcoA1), SRC2 (NcoA2,TIF2), SRC3 (NcoA3), PGC1α, PGC1β, CBP, GRIP1, TRAP220, RIP140.
(§1) The ligand binding domain (LBD) of RORγ was expressed as fusion protein with GST in […] cells using the vector pDEST15. Cells were lysed by lysozyme-treatment and sonication, and the fusion proteins purified over glutathione sepharose (Pharmacia) according to the manufacturers instructions. For screening of compounds for their influence on the RORγ-peptide interaction, the LANCE technology (Perkin Elmer) was applied. This method relies on the binding dependent energy transfer from a donor to an acceptor fluorophor attached to the binding partner of interest. For ease of handling and reduction of background from compound fluorescence LANCE technology makes use of generic fluorophore labels and time resolved detection assays were done in a final volume of 25 μl in a 384 well plate, in a Tris-based buffer (20 mM Tris-HCl pH 7.9; 60 mM KCl, 5 mM MgCl2; 35 ng/μl BSA), containing 20-60 ng/well recombinantly expressed RORγ-LBD fused to GST, 200-600 nM N-terminally biotinylated peptide, 200 ng/well Streptavidin-xIAPC conjugate (Prozyme) and 6-10 ng/well Eu W1024-antiGST (Perkin Elmer). DMSO content of the samples was kept at 1%. After generation of the assay mix the potentially RORγ modulating ligands were diluted. After his step, the assay was equilibrated for one hour in the dark at room temperature in FIA-plates black 384 well (Greiner). The LANCE signal was detected by a Perkin Elmer VICTOR2V™ Multilabel Counter. […] Ligands that promote the complex formation induce a concentration-dependent increase in time-resolved fluorescent signal.
Equation: Sigmoidal dose-response (variable slope) Y=Bottom+(Top-Bottom)/(1+10̂((LogEC50-X)*HillSlope))
This is identical to the “four parameter logistic equation”. The EC50 or IC50 values are calculated using this equation.

[2] = target: T1, RORgamma ligand binding domain; experiment: TR-FRET assay variation: agonist titration on top of saturating antagonist (4 μM LE540); assay type: biochemical; parameters: made in house; host or cells: E. coli BL21(DE3)
Source text: as §1
In a variation of the assay described above, an antagonistic compound was added in a saturating concentration (4 μM) to the assay mix. Then the agonistic compounds were diluted and the assay was equilibrated for one hour in the dark.

[3] = target: T1, RORgamma ligand binding domain; experiment: Radioligand displacement assay (3H-25-hydroxycholesterol); parameters: made in house; host or cells: E. coli BL21 (DE3); settings: FIG. 1; for apparent potency and efficacy of displacement: comparison among ligands; for displacement of 3H-25-hydroxycholesterol bound to RORgamma-LBD: dose dependent, radioligand at saturating concentration (500 nM)
Source text: This method measures the ability of putative ligands to displace a radioactively labeled compound that is bound to the RORgamma ligand binding domain.
The ligand binding domain (LBD) of RORγ was expressed as fusion protein with GST in BL-21 cells using the vector pDEST15. Cells were lysed by lysozyme-treatment and sonication, and the fusion proteins purified over glutathione sepharose (Pharmacia) according to the manufacturers instructions. For screening of compounds for their ability to bind to RORγ, commercially available 25-26,27-[…]-hydroxycholesterol
(Perkin Elmer, NET674250UC) was bound to the protein and displacement by non radioactive ligands was observed. The assay was done in a final volume of 100 μl in a 96-well glutathione and scintillant coated microplate (Perkin Elmer, SMP109001PK). […] Compounds to be tested were titrated and added to the protein-radioligand mix. DMSO content of the samples was kept at 1%. After addition of the compounds, the assay was equilibrated for 30 min at room temperature. After this incubation the assay plate wells were washed twice with Tris buffer (20 mM Tris-HCl pH 7.5; 60 mM KCl, 5 mM MgCl2) and subsequently measured for 500 sec per well in a LUMIstar OPTIMA (BMG).

[4] = test system: IL-17 production by peripheral blood human mononuclear cells (PBMCs); experiment: PBMC stimulation and IL-17 secretion assay (ELISA); assay type: cell-based; settings: 72 h; for mean concentration of IL-17: anti-CD3/anti-CD28 stimulated PBMCs
Procedure: Cryopreserved peripheral blood human mononuclear cells (PBMCs) were used for the experiments. The cells were thawed in CTL-Anti-Aggregate-Wash™ solution and washed once in CTL Wash™ medium with benzonase. PBMCs, suspended in CTL serum-free test media (CTL-Test™ Medium), were plated into 96-well BD BioCoat Anti-Human CD3 T-Cell activation plate at a total of 1×10^5 cells/well in triplicate. The cells were incubated with anti-CD28 (2 μg/ml) in the absence or presence of LE540, LE135 and Am580 at different concentrations for 72 h at 37° C. with 5% CO2. The compounds were added at the time 0. The supernatants were harvested and assayed for IL-17 according to the protocol from the corresponding ELISA kit (Invitrogen). The detection range was 15.6-1,000.0 pg/ml. Data are presented as means±s.d. values.
In the control experiments PBMCs were stimulated with anti-CD3 (plate) and anti-CD28 in the presence of 0.1% DMSO. The mean concentration of IL-17 was 1,003.36±45.18 pg/ml. In contrast, the concentration of IL-17 in non stimulated cells was under the detection range (<15.6 pg/ml). […] The compounds were added to the cells at time 0 together with the anti-CD28 mAb. […] The lower concentration of LE540 (0.1 μM) was also very potent in PBMCs. […] The amount of IL-17 protein was down regulated after treatment of cells with 3, 1, and 0.3 μM of LE135 (FIG. 3).

[5] = agonistic, peptide TIF2(628-658), read-out: EC50
[6] = agonistic, assay includes 4 μM LE540, peptide TIF2(628-658), read-out: apparent EC50
[7] = Homo sapiens, PBMC, 0.3 μM compound, stimulated PBMCs, read-out: percentage of IL-17 inhibition

Compound | IC50 ([1]; peptide SRC1(676-700)) | IC50 ([1]; peptide TIF2(628-658)) | apparent potency and efficacy of displacement [3] | displacement of 3H-25-hydroxycholesterol bound to RORgamma-LBD [3] | EC50 [1, 5] | EC50 [2, 6] | production of IL-17 by human PBMCs (qualitative) ([4]; stimulated PBMCs) | also measured
CC(C)CC[C@@H](O)[C@@H](C)[C@H]1CC[C@H]2[C@@H]3CC=C4C[C@@H](O)CC[C@]4(C)[C@H]3CC[C@]12C [22R-Hydroxycholesterol] | – | – | – | – | – | – | – | EC50 [1]: 0.0165 µM; EC50 [2]: 0.154 µM
C[C@@H](CO)CCC[C@@H](C)[C@H]1CC[C@H]2[C@@H]3CC=C4C[C@@H](O)CC[C@]4(C)[C@H]3CC[C@]12C [(25R)-26-Hydroxycholesterol] | – | – | – | – | 0.0141 µM | 0.146 µM | – | –
CC(C)(C)c1cc(C(=O)C=Cc2ccc(C(=O)O)cc2)cc(C(C)(C)C)c1 [Ch55] | 12.2 µM | 11.3 µM | lowest potency and efficacy | able to displace | – | – | – | displacement of 3H-25-hydroxycholesterol bound to RORgamma-LBD ([3]; listed as CH55): dose-dependent competitive displacement
COC(=O)CC[C@@H](C)[C@H]1CC[C@H]2[C@@H]3CC=C4C[C@@H](O)CC[C@]4(C)[C@H]3CC[C@]12C [Cholenic Acid Methyl Ester] | – | – | – | – | 0.0275 µM | 0.311 µM | – | EC50 ([1]; agonistic, peptide TIF2(628-658), listed as cholenic acid methyl ester, read-out: EC50): 0.0277 µM
C[C@H](CCC(=O)N(C)C)[C@H]1CC[C@H]2[C@@H]3CC=C4C[C@@H](O)CC[C@]4(C)[C@H]3CC[C@]12C [DMHCA] | – | – | – | – | 0.0107 µM | 0.085 µM | – | –
CN1c2cc3c(cc2N=C(c2ccc(C(=O)O)cc2)c2ccc4ccccc4c21)C(C)(C)CCC3(C)C [LE540] | 3.6 µM | 4.9 µM | highest | able to displace; also recorded: dose-dependent competitive displacement | – | – | inhibit the production of IL-17 | mean concentration of IL-17 ([4]; 0.1 μM compound): 659.39 pg/mL; mean concentration of IL-17 ([4]; 0.3 μM compound): 289.69 pg/mL; inhibition at 0.1 µM ([4]; Homo sapiens, PBMC, 0.1 μM compound, stimulated PBMCs, read-out: percentage of IL-17 inhibition): 34.3%; inhibition at 0.3 µM [4, 7]: 71.1%
Am580 | 23.4 µM | 19.8 µM | – | – | – | – | inhibit the production of IL-17 | level of IL-17 ([4]; 1 μM compound, stimulated PBMCs): within the control range; level of IL-17 ([4]; 5 μM compound, stimulated PBMCs): within the control range; percentage of IL-17 inhibition ([4]; 10 μM compound, stimulated PBMCs): 69.73%

Second part, led by results:

IC50 ([1]; peptide SRC1(676-700)) | IC50 ([1]; peptide TIF2(628-658)) | apparent potency and efficacy of displacement [3] | displacement of 3H-25-hydroxycholesterol bound to RORgamma-LBD [3] | Compound | EC50 [1, 5] | EC50 [2, 6] | production of IL-17 by human PBMCs (qualitative) ([4]; stimulated PBMCs) | also measured
19.3 µM | 13.2 µM | – | – | CN1c2cc3c(cc2N=C(c2ccc(C(=O)O)cc2)c2ccccc21)C(C)(C)CCC3(C)C [LE135] | – | – | inhibit the production of IL-17 | inhibition at 0.3 µM [4, 7]: 35.8%; inhibition at 1 µM ([4]; Homo sapiens, PBMC, 1 μM compound, stimulated PBMCs, read-out: percentage of IL-17 inhibition): 61.9%; inhibition at 3 µM ([4]; Homo sapiens, PBMC, 3 μM compound, stimulated PBMCs, read-out: percentage of IL-17 inhibition): 75.9%
8.6 µM | 8.2 µM | less potent but seems rather efficient | dose-dependent competitive displacement | C/C(=C\c1ccc(C(=O)O)cc1)c1ccc2c(c1)C(C)(C)CCC2(C)C [TTNPB] | – | – | – | displacement of 3H-25-hydroxycholesterol bound to RORgamma-LBD ([3]; listed as TTNBP): able to displace
